Assay results from US8933228B2, “Respiratory formulations and compounds for use therein” (Respivert, Ltd., priority 2010, dated 2015).

Assays:
cSrc enzyme = cSrc enzyme (Homo sapiens (Human), UniProt P12931); assay: c-SRC enzyme inhibition assay (FRET, Z'-LYTE); format: biochemical; conditions: read-out: Enzyme Profile: IC50 Values cSrc
HRV16 = assay: Rhinovirus-titre assay; format: cell-based, human rhinovirus; conditions: HRV16; for inhibition at 0.04 µg/mL: Human rhinovirus sp., cell not marked b, test compounds 0.04 μg/mL per method (footnote b, 0.2 μg/mL), read-out: HRV titre (inhibitory %): % inhibition observed vs. HRV16 infection control; for NBEC (HRV) HRV titre Relative anti-viral activity: at 0.04 μg/mL vs. pleconaril at 0.1 μg/mL
Experimental: MRC5 cells (human lung fibroblast, ATCC) were infected with 1 MOI (multiplicity of infection of 1.0) of HRV16 and incubated for 1 hr at 33° C. with gentle shaking to stimulate adsorption. The cells were then washed with PBS, fresh media was added and the cells were incubated for a further 96 hr. The supernatant was collected and 10-fold serial dilutions of virus containing supernatant were prepared. All titrations were performed by infecting confluent Hela cell monolayers with serially diluted supernatant (10^−1-10^−5) and assessing the cytopathic effect by visual inspection 4 days after infection. The amount of virus required to infect 50% of Hela cells was calculated in each treatment as TCID50. Test compounds (0.04 μg/mL) were added 2 hr before HRV infection and 1 hr after infection when non-infected HRV was washed out. The anti-HRV activity of each test compound was determined as the difference of the log TCID50 of HRV16 in the presence of the compound with the log TCID50 of HRV16 in the absence of compound. […]

[1] = test system: TNFα release in d-U937 cells; assay: LPS-induced TNFα release in d-U937 cells; format: cell-based; conditions: Homo sapiens, dU937, LPS 0.1 μg/mL, 4 hr, relative to 10 μg/mL BIRB796, read-out: d-U937 (LPS) TNFα REC50
Experimental: (§1) U937 cells, a human monocytic cell line, were differentiated to macrophage-type cells by incubation with phorbol myristate acetate (PMA; 100 ng/mL) for 48 to 72 hr, whereupon the cells become adherent. […] Coli: O111:B4, Sigma) for 4 hr. The supernatant was collected for determination of TNFα and IL-8 concentrations by sandwich ELISA (Duo-set, R&D systems). […] The relative 50% effective concentration (REC50) was determined from the resultant concentration-response curve. The inhibition of IL-8 production was calculated at each concentration of test compound by comparison with vehicle control.

p38 MAPK alpha (MAPK14) = p38 MAPK alpha (MAPK14) (Homo sapiens (Human), UniProt Q16539); assay: Enzyme inhibition assay (FRET, Z-LYTE), p38 MAPK alpha via MAPKAP-K2 activation; format: biochemical; conditions: read-out: Enzyme Profile: IC50 Values p38α
Experimental: (§2) The enzyme inhibitory activity of test compounds was determined by fluorescence resonance energy transfer (FRET) using synthetic peptides labelled with both donor and acceptor fluorophores (Z-LYTE, Invitrogen). Recombinant, phosphorylated p38 MAPK γ (MAPK12:Millipore) was diluted in HEPES buffer, mixed with compound at the desired final concentrations and incubated for 2 hr at RT. The FRET peptide (2 μM) and ATP (100 μM) were next added to the enzyme/compound mixture and incubated for 1 hr. Development reagent (protease) was added for 1 hr prior to detection in a fluorescence microplate reader. The site-specific protease only cleaves non-phosphorylated peptide and eliminates the FRET signal. Phosphorylation levels of each reaction were calculated using the ratio of coumarin emission (donor) over fluorescein emission (acceptor) with high ratios indicating high phosphorylation levels and low ratios indicating low phosphorylation levels.
For p38 MAPK alpha (MAPK14: Invitrogen), enzyme activity was evaluated indirectly by determining activation/phosphorylation of the down-stream molecule, MAPKAP-K2. The p38 MAPK a protein was mixed with compound for 2 hr at RT. […] Development reagent was then added and the mixture incubated for 1 hr before detection by fluorescence completed the assay protocol.
The enzyme inhibitory activity of compound was determined by fluorescence resonance energy transfer (FRET) using synthetic peptides labelled with both donor and acceptor fluorophores (Z′-LYTE, Invitrogen).

HCK enzyme = HCK enzyme (Homo sapiens (Human), UniProt P08631); assay: HCK enzyme inhibition assay (FRET, Z'-LYTE); format: biochemical; conditions: read-out: Enzyme Profile: IC50 Values HCK
[2] = test system: Differentiated U937 cells; assay: MTT assay: cell viability; format: cell-based, human; conditions: 1 μg/ml; for d-U937 MTT Assay 4 h: 5% FCS; for d-U937 MTT Assay 24 h: 10% FCS
Experimental: Differentiated U937 cells were pre-incubated with each test compound under two protocols: the first for 4 hr in 5% FCS and the second in 10% FCS for 24 h. The supernatant was replaced with 200 μL of new media and 10 μL of MTT stock solution (5 mg/mL) was added to each well. After incubation for 1 hr the media were removed, 200 μL of DMSO was added to each well and the plates were shaken lightly for 1 hr prior to reading the absorbance at 550 nm. The percentage loss of cell viability was calculated for each well relative to vehicle (0.5% DMSO) treatment. Consequently an apparent increase in cell viability for drug treatment relative to vehicle is tabulated as a negative percentage.

[3] = test system: ICAM-1 expression in BEAS2B cells; assay: Poly I:C-induced ICAM-1 induction in BEAS2B cells; format: cell-based; conditions: Homo sapiens, BEAS-2B; BEAS2B cells, poly I:C 1 μg/mL, 18 hr; read-out: BEAS2B (polyIC) ICAM1 IC50
Experimental: Poly I:C (1 μg/mL) (Invivogene Ltd., San Diego, Calif.) was transfected into BEAS2B cells (human bronchial epithelial cells, ATCC) with Oligofectamine (Invitrogen, Carlsbad, Calif.). Cells were pre-incubated with final concentrations of test compounds for 2 hr and the level of ICAM1 expression on the cell surface was determined by cell-based ELISA. […] The cells were washed with PBS-Tween and incubated with the secondary antibody (HRP-conjugated anti-rabbit IgG, Dako Ltd., Glostrup, Denmark).

[4] = test system: TNFα release in THP-1 cells; assay: LPS-induced TNFα release in THP-1 cells; format: cell-based; conditions: Homo sapiens; THP-1 cells, LPS 3 μg/mL, 4 hr; read-out: THP1 (LPS) TNFα IC50
Experimental: The inhibition of TNFα production was calculated at each concentration by comparison with vehicle control.

[5] = test system: IL-8 release in d-U937 cells; assay: LPS-induced IL-8 release in d-U937 cells; format: cell-based; conditions: Homo sapiens, dU937; d-U937 cells, LPS 0.1 μg/mL, 4 hr; read-out: d-U937 (LPS) IL-8 IC50
Experimental: as §1

p38 MAPK γ (MAPK12) = p38 MAPK γ (MAPK12) (Homo sapiens (Human), UniProt P53778); assay: Enzyme inhibition assay (FRET, Z-LYTE), p38 MAPK gamma; format: biochemical; conditions: read-out: Enzyme Profile: IC50 Values p38γ
Experimental: as §2

IC50 (cSrc enzyme) [nM]	EC50 [1] [nM]	IC50 (p38 MAPK alpha (MAPK14)) [nM]	IC50 (HCK enzyme) [nM]	IC50 [4] [nM]	IC50 [5] [nM]	IC50 (p38 MAPK γ (MAPK12)) [nM]	SMILES	inhibition at 0.04 µg/mL (HRV16) [%]	NBEC (HRV) HRV titre Relative anti-viral activity (HRV16)	d-U937 MTT Assay 4 h [2]	d-U937 MTT Assay 24 h [2]	IC50 [3] [nM]
7	0.2	17	< 2	1.6	19	74	Cc1ccc(-n2nc(C(C)(C)C)cc2NC(=O)Nc2ccc(Oc3ccnc4[nH]c(=O)[nH]c34)c3ccccc23)cc1 [Example 1, 1-(3-tert-butyl-1-p-tolyl-1H-pyrazol-5-yl)-3-(4-(2-oxo-2,3-dihydro-1H-imidazo [4,5-b]pyridin-7-yloxy)naphthalen-1-yl) urea]	94	0.1	− (− and + indicate the result is below and above the no significant effect threshold, respectively (<30% inhibition at a concentration of 1 μg/ml))	− (− and + indicate the result is below and above the no significant effect threshold, respectively (<30% inhibition at a concentration of 1 μg/ml))	2.7
36	3	5	< 2	1.4	7.5	67	CC(C)(C)c1cc(NC(=O)Nc2ccc(Oc3ccnc4[nH]c(=O)[nH]c34)c3ccccc23)n(-c2ccccc2)n1 [Example 2, 1-(3-tert-butyl-1-phenyl-1H-pyrazol-5-yl)-3-(4-(2-oxo-2,3-dihydro-1H-imidazo [4,5-b]pyridin-7-yloxy)naphthalen-1-yl) urea]	60	1	− (− and + indicate the result is below and above the no significant effect threshold, respectively (<30% inhibition at a concentration of 1 μg/ml))	− (− and + indicate the result is below and above the no significant effect threshold, respectively (<30% inhibition at a concentration of 1 μg/ml))	9.8
4	1.1	1	2	0.7	17	24	Cc1ccc(-n2nc(C(C)(C)C)cc2NC(=O)Nc2ccc(Oc3ccnc4[nH]c(=O)n(C)c34)c3ccccc23)cc1 [Example 3, 1-(3-tert-butyl-1-p-tolyl-1H-pyrazol-5-yl)-3-(4-(1-methyl-2-oxo-2,3-dihydro-1H-imidazo[4,5-b]pyridin-7-yloxy)naphthalen-1-yl)urea]	36	0.2	− (− and + indicate the result is below and above the no significant effect threshold, respectively (<30% inhibition at a concentration of 1 μg/ml))	− (− and + indicate the result is below and above the no significant effect threshold, respectively (<30% inhibition at a concentration of 1 μg/ml))	4.1
0.9	171	18	7	185	378	214	CC(C)(C)c1cc(NC(=O)Nc2ccc(Oc3ccnc4[nH]c(=O)[nH]c34)c3ncccc23)n(-c2ccccc2)n1 [Example 4, 1-(3-tert-butyl-1-phenyl-1H-pyrazol-5-yl)-3-(8-(2-oxo-2,3-dihydro-1H-imidazo [4,5-b]pyridin-7-yloxy)quinolin-5-yl) urea]	60	0.7	− (− and + indicate the result is below and above the no significant effect threshold, respectively (<30% inhibition at a concentration of 1 μg/ml))	− (− and + indicate the result is below and above the no significant effect threshold, respectively (<30% inhibition at a concentration of 1 μg/ml))	581
5	0.6	7	4	0.6	4.6	23	COc1ccc(-n2nc(C(C)(C)C)cc2NC(=O)Nc2ccc(Oc3ccnc4[nH]c(=O)n(C)c34)c(Cl)c2Cl)cc1 [Example 13, 1-(3-(tert-Butyl)-1-(4-methoxyphenyl)-1H-pyrazol-5-yl)-3-(2,3-dichloro-4-((1-methyl-2-oxo-2,3-dihydro-1H-imidazo[4,5-b]pyridin-7-yl)oxy)phenyl)urea]	–	–	− (− and + indicate the result is below and above the no significant effect threshold, respectively (<30% inhibition at a concentration of 1 μg/ml))	+ (− and + indicate the result is below and above the no significant effect threshold, respectively (<30% inhibition at a concentration of 1 μg/ml))	6.2
13	1.9	7	3	75	1.6	29	CNS(=O)(=O)Cc1ccc(-n2nc(C(C)(C)C)cc2NC(=O)Nc2ccc(Oc3ccnc4[nH]c(=O)cnc34)c3ccccc23)cc1 [Example 26, 1-(4-(3-(tert-butyl)-5-(3-(4-((3-oxo-3,4-dihydropyrido[2,3-b]pyrazin-8-yl)oxy)naphthalen-1-yl)ureido)-1H-pyrazol-1-yl)phenyl)-N-methylmethanesulfonamide]	–	–	− (− and + indicate the result is below and above the no significant effect threshold, respectively (<30% inhibition at a concentration of 1 μg/ml))	− (− and + indicate the result is below and above the no significant effect threshold, respectively (<30% inhibition at a concentration of 1 μg/ml))	207
